The subject of assay [1] is S. Enteritidis ATCC 13076. Kind of assay: MIC for biofilm metabolic activity (MTT reduction assay). The following applies: for MICBM80: ≥80% inhibition, 24 h. In kind it is cell-based, Salmonella enterica Enteritidis. How it is done: (§1) Ten concentrations of NAC, RLs, and UA were tested to determine the minimum inhibitory concentration for planktonic growth, and subsequently, the six highest concentrations were applied on preformed biofilms to evaluate the biofilm eradication ability of the compounds. MIC was defined as the lowest substance concentration able to inhibit at least 80% of microbial growth (MICPC80 for planktonic cells, MICBC80 for further growth of biofilm cells), inhibit 80% of metabolic activity (MICBM80 for biofilm metabolic activity, MICMPB80 for metabolic activity of preformed biofilm), prevent biofilm formation by at least 80% (MICBF80 for biofilm formation), or reduce a preformed biofilm by at least 80% (MICBR80 for biofilm reduction). The results of MICs are summarized in Table 1 (planktonic cells) and Table 2 (biofilm-associated cells).
(§2) The determination of MICs was performed according to Chlumsky et al.. […] To evaluate planktonic cells growth (MICPC80) and further growth of biofilm cells (MICBC80), the optical density of the content of the microtiter plates was measured spectrophotometrically at 625 nm before and after 24 h (for biofilm formation) of cultivation or before and after additional 20 h incubation with the tested compound (for preformed biofilm). […] To evaluate the inhibition of biofilm formation (MICBF80) and reduction in preformed biofilms (MICBR80), biomass was quantified using crystal violet staining, and its metabolic activity (MICBM80 and MICMPB80) was estimated by using the MTT (thiazyl tetrazolium bromide, Sigma-Aldrich, USA) reduction assay, both measured spectrophotometrically at 595 nm.
All inhibitions were calculated using the formula of Chlumsky et al. below (Equation (1)):(1) A625(595)nm inhibition (%)=A625(595)nm (control) – A625(595)nm(natural substance)/A625(595)nm (control)× 100 where A625(595)nm (control) is the absorbance of bacterial suspension/biofilm itself, and A625(595)nm(natural substance) is the absorbance of the bacterial suspension/biofilm with the added natural substance (NAC, RLs, and UA). […]

Assay [2] deals with S. Enteritidis ATCC 13076. Nature of the assay: CLSM analysis, biofilm removal (preformed biofilm). In kind it is cell-based, Salmonella enterica Enteritidis. The following applies: 20 h exposure, mean ± SD; for Thickness (µm) subCBM80: substance at subinhibitory concentration. Here is the method: Biofilm prevention and removal analyses were performed using previously determined minimum inhibitory and subinhibitory concentrations for metabolic activity (MICBM80, subCBM80; MICMPB80, subCMPB80) of NAC, RLs, and UA specific for each tested strain. Selected concentrations were used to evaluate the inhibition of biofilm formation (biofilm prevention) and the reduction in previously formed biofilms (biofilm removal) for the same set of microorganisms, with the exception of S. Infantis, which was excluded from the analysis due to its inability to form biofilm in the selected microtiter plate. Biofilm prevention and removal were observed using CLSM with specific staining to distinguish between live and membrane-compromised cells. Images were analyzed to evaluate (i). the total volume of the biomass, (ii). ratios of live and membrane-compromised cells, and (iii). to calculate biofilm volume reduction for individual organisms after the respective treatment types. The total biofilm volume was normalized by the area of the well and expressed as an average biofilm thickness. Complete data are provided in Supplementary Materials (Tables S1–S8).
At first, bacterial suspensions were cultivated in microtiter plates to produce overnight biofilms (18 h). […] cells were then washed out, and the remaining biofilms were further cultivated for an additional 20 h with selected compounds. Following biofilm cultivation, biomass was observed using CLSM with live/membrane-compromised cell staining. Biomass images from biofilm removal treatments were similar to results from biofilm prevention, where biomass was highly diversified across the bacterial species and strains. Visually, biomass images were fairly consistent within the quadruplicates for each tested organism. Non-treated biofilms of S. aureus contained consistent biomass spread across the well (S. aureus 816) or grown around the edges (S. aureus 1241). […]
For both inhibition and reduction of biofilms, overnight cultures from BHI were diluted in TSB + 1% Glc to reach an absorbance of 0.08 to 0.1 at 625 nm. […]

The test system of assay [3] is L. monocytogenes 164. Kind of assay: MIC for planktonic cell growth (A625nm). The assay is classed as cell-based, Listeria monocytogenes. To be noted: ≥80% inhibition, 24 h. Here is the method:
as §1
as §2, with “al.. Briefly, 96-well flat-bottomed microtiter plates were inoculated with 75 µL (for biofilm formation) or 100 µL (for preformed biofilm) of bacterial suspension (A625nm 0.08 to 0.1) in technical triplicates and were then carefully mixed with the dilution series of the test substances (24 h cultivation at 25 °C for S. Infantis, 37 °C for other strains) or were directly cultivated to preform biofilms (18 h). For a positive control of bacterial growth, the inoculum was mixed with a pure sterile medium.” for “al..”
(§3) All inhibitions were calculated using the formula of Chlumsky et al. below (Equation (1)):(1) A625(595)nm inhibition (%)=A625(595)nm (control) – A625(595)nm(natural substance)/A625(595)nm (control)× 100 where A625(595)nm (control) is the absorbance of bacterial suspension/biofilm itself, and A625(595)nm(natural substance) is the absorbance of the bacterial suspension/biofilm with the added natural substance (NAC, RLs, and UA).
(§4) When the minimum inhibitory concentration could not be determined, the MIC was established as >the highest tested concentration for NAC, RLs, and UA.

The subject of assay [4] is L. monocytogenes 149. Nature of the assay: MIC for planktonic cell growth (A625nm). The following applies: ≥80% inhibition, 24 h. In kind it is cell-based, Listeria monocytogenes. How it is done:
as §1
as §2, with “al.. Briefly, 96-well flat-bottomed microtiter plates were inoculated with 75 µL (for biofilm formation) or 100 µL (for preformed biofilm) of bacterial suspension (A625nm 0.08 to 0.1) in technical triplicates and were then carefully mixed with the dilution series of the test substances (24 h cultivation at 25 °C for S. Infantis, 37 °C for other strains) or were directly cultivated to preform biofilms (18 h). For a positive control of bacterial growth, the inoculum was mixed with a pure sterile medium.” for “al..”
as §3, §4

Assay [5] has as its system S. Infantis S13. Kind of assay: MIC for biofilm metabolic activity (MTT reduction assay). In kind it is cell-based, Salmonella enterica Infantis. The following applies: for MICBM80: ≥80% inhibition, 24 h. How it is done:
as §1
The determination of MICs was performed according to Chlumsky et al.. Briefly, 96-well flat-bottomed microtiter plates were inoculated with 75 µL (for biofilm formation) or 100 µL (for preformed biofilm) of bacterial suspension (A625nm 0.08 to 0.1) in technical triplicates and were then carefully mixed with the dilution series of the test substances (24 h cultivation at 25 °C for S. Infantis, 37 °C for other strains) or were directly cultivated to preform biofilms (18 h). For a positive control of bacterial growth, the inoculum was mixed with a pure sterile medium. Furthermore, the sterile medium was included in the plate as a marker of potential microbial contamination. To evaluate planktonic cells growth (MICPC80) and further growth of biofilm cells (MICBC80), the optical density of the content of the microtiter plates was measured spectrophotometrically at 625 nm before and after 24 h (for biofilm formation) of cultivation or before and after additional 20 h incubation with the tested compound (for preformed biofilm). The difference of A625nm was considered as a measure of the ability of cells to grow in the presence of the tested substances. To evaluate the inhibition of biofilm formation (MICBF80) and reduction in preformed biofilms (MICBR80), biomass was quantified using crystal violet staining, and its metabolic activity (MICBM80 and MICMPB80) was estimated by using the MTT (thiazyl tetrazolium bromide, Sigma-Aldrich, USA) reduction assay, both measured spectrophotometrically at 595 nm.
as §3, §4
Background: Formazan colour is commonly taken as a measure of viable cells.

Two compounds from publication PMC8583417, “Evaluation of the Antimicrobial Efficacy of N-Acetyl-L-Cysteine, Rhamnolipids, and Usnic Acid—Novel Approaches to Fight Food-Borne Pathogens” (International Journal of Molecular Sciences, 2021) can be followed below.

Some results are limits rather than exact numbers.

With `CC(=O)c1c(O)c(C)c(O)c2c1OC1=CC(=O)C(C(C)=O)C(=O)C12C` (single isomer, unassigned; (+)) [UA, (+)-usnic acid], the “maximal achieved inhibition (MICBM80 not reached)” value in assay [1] (within tested concentrations) worked out at 45%; in assay [5] (within tested concentrations) it was 41%. For the same compound, the MICBM80 in assay [1] and in assay [5] was > 31.3 µg/mL each time. Besides, the “Thickness (µm) subCBM80” value in assay [2] came to 203 ± 19.8 µm. For the same compound, the MICPC80 in assay [3] worked out at 1.96 µg/mL; in assay [4], 0.98 µg/mL.
In the case of `CC(=O)N[C@@H](CS)C(=O)O` [NAC, N-Acetyl-L-cysteine], the MICBM80 in assay [1] and in assay [5] was 12,500 µg/mL in each case. The “Thickness (µm) MICBM80” value in assay [2] (substance at its MIC) was 212 ± 16.6 µm. Further, the “Thickness (µm) subCBM80” value in assay [2] came to 229 ± 54.9 µm. Further, the MICPC80 in assay [3] came to 6250 µg/mL; in assay [4], 3130 µg/mL.
